According to the NIST ThermoML archive (doi:10.1016/j.tca.2012.05.004):
Numbers after ± are expanded uncertainties.

Conditions: 101.33 kPa, Liquid, Vibrating tube method

Structure (SMILES) | mass density (288.15 K) | mass density (293.15 K) | mass density (298.15 K) | mass density (303.15 K) | mass density (308.15 K) | mass density (313.15 K)
ClCCCl [1,2-dichloroethane] | 1259.99 ± 0.58 kg/m3 | 1252.77 ± 0.57 kg/m3 | 1245.49 ± 0.56 kg/m3 | 1238.18 ± 0.56 kg/m3 | 1230.84 ± 0.55 kg/m3 | 1223.46 ± 0.54 kg/m3
CCCCCCC(C)O (stereo unspecified) [2-octanol] | 824.028 ± 0.3 kg/m3 | 820.313 ± 0.3 kg/m3 | 816.559 ± 0.3 kg/m3 | 812.768 ± 0.3 kg/m3 | 808.94 ± 0.31 kg/m3 | 805.079 ± 0.31 kg/m3
CCC(C)O (stereo unspecified) [butan-2-ol] | 810.879 ± 0.3 kg/m3 | 806.837 ± 0.31 kg/m3 | 802.716 ± 0.31 kg/m3 | 798.513 ± 0.31 kg/m3 | 794.218 ± 0.31 kg/m3 | 789.832 ± 0.31 kg/m3

Other lines, results leading:

mass density (288.15 K) | mass density (293.15 K) | mass density (298.15 K) | mass density (303.15 K) | mass density (308.15 K) | mass density (313.15 K) | Structure (SMILES)
818.064 ± 0.3 kg/m3 | 814.174 ± 0.3 kg/m3 | 810.227 ± 0.31 kg/m3 | 806.225 ± 0.31 kg/m3 | 802.16 ± 0.31 kg/m3 | 798.04 ± 0.31 kg/m3 | CCCCC(C)O (stereo unspecified) [2-hexanol]
813.272 ± 0.3 kg/m3 | 809.305 ± 0.31 kg/m3 | 805.27 ± 0.31 kg/m3 | 801.157 ± 0.31 kg/m3 | 796.97 ± 0.31 kg/m3 | 792.702 ± 0.31 kg/m3 | CCCC(C)O (stereo unspecified) [pentan-2-ol]
789.337 ± 0.31 kg/m3 | 785.198 ± 0.31 kg/m3 | 780.987 ± 0.31 kg/m3 | 776.718 ± 0.31 kg/m3 | 772.371 ± 0.31 kg/m3 | 767.935 ± 0.31 kg/m3 | CC(C)O [propan-2-ol]
